Test results reported in patent US20130023553A1, “PEGYLATED OPIOIDS WITH LOW POTENTIAL FOR ABUSE AND SIDE EFFECTS” (Nektar Therapeutics, priority 2010, published 2013).

Settings: 25 mg/kg intravenously, an hour following injection
Procedure: An hour following injection, the animals were sacrificed and plasma and the brain were collected and frozen immediately. Following tissue and plasma extractions, concentrations of the compounds in brain and plasma were measured using LC-MS/MS. The brain:plasma ratio was calculated as the ratio of measured concentrations in the brain and plasma.

COCCOCCOCCO[C@H]1CC[C@@]2(O)[C@H]3Cc4ccc(O)c5c4[C@@]2(CCN3CC2CCC2)[C@H]1O5 [6-O-mPEG3-Nalbuphine]
Brain:Plasma Ratios: 0.23
